Test results reported in patent publication US20160029628A1, “COMPOUNDS, COMPOSITIONS, AND METHODS FOR REPELLING AN INSECT FROM AN AREA,ARTICLE, AND/OR STRUCTURE” (BAYER CROPSCIENCE LP, priority 2013, published 2016).

What was measured:
honeybees = assay: Honeybee repellency at feeding stations, repellent in 50% sucrose solution; format: in vivo
Description: FIG. 1 describes the feeding station arrangement (A and B) for the honeybee repulsion experiments described herein. As set forth in FIG. 1, panel (A) sets forth the bee cage positions on the left portion of panel (A) with the randomized feeding station positions on the right portion of panel (A). Panel (B) sets forth an alignment of the randomized feeding station positions with a distance of two meters between feeding stations. A total of eight feeding stations were evaluated at a ten meter distance in front of the respective bee hives. The feeding stations were placed two meters apart from one another.
Honeybees were trained to deep feeders (eight positions), each containing a 50% sucrose solution for one day. After the honeybees were trained to each feeder, the 50% sucrose feeder at randomized positions 1-8 was replaced with a shallow feeder containing a combination of repelling compounds and a 50% sucrose solution according to Table 3. In accordance with FIGS. 5 and 6, 2% by weight of Camphor oil (T4), Ajowan oil (T5), Camphor powder (T6), Rosemary oil (T7), and 2-Decanone (T8) in combination with a 50% sucrose treatment were added to feeders on day two.
Table 3 describes active agents evaluated for bee repulsion and their randomized feeding station positions. As described in Table 3, T1 (control), T2 (control), T3 (control), T4 (Camphor oil), T5 (Ajowan oil), T6 (Camphor powder), T7 (Rosemary oil), and T8 (2-Decanone).
FIG. 5 evaluates the number of bees visiting a respective feed station over a time interval. FIG. 6 sets forth the mean number of honeybees visiting feeding station over a period of four hours.

[1] = Stability test of Poncho 600 with Eugenol, clothianidin content by HPLC; format: physicochemical; conditions: combined with Eugenol; up to 54° C. for seven days
Description: Table 4 describes a stability test with a combination of Eugenol and Poncho evaluated at room temperature, 40° C., and 54° C. at zero time, 3 days, and 7 days as confirmed by high performance liquid chromatography (HPLC).

[2] = Stability test of Poncho 600 with α-terpineol, clothianidin content by HPLC; format: physicochemical; conditions: combined with alpha-terpineol; up to 54° C. for eight days
Description: Table 5 describes a stability test with a combination of α-terpineol and Poncho 600 evaluated at room temperature, 40° C., and 54° C. at zero time, 2 days, and 8 days as confirmed by HPLC.

Row | SMILES | repellency over the full 4 hour assessment period (honeybees; 2% by weight with 50% sucrose, 4 hours) | repellency at 24 hours (honeybees; 2% by weight with 50% sucrose) | repellency at 24 hours (honeybees; 2% by weight with 50% sucrose, listed as 2-Decanone) | repellent effect relative to comparators (honeybees; relative to camphor oil, ajowan oil, camphor powder, or rosemary oil, FIGS. 5-6) | chemical stability of clothianidin content [1] | chemical stability of clothianidin content [2]
1 | CCCCCCCCC(C)=O [Compound 2-decanone, 2-decanone] | highly repellent | still repellent | exhibited repellency | larger repellent effect |  | 
2 | CN/C(=N\[N+](=O)[O-])NCc1cnc(Cl)s1 [clothianidin] |  |  |  |  | exhibited chemical stability | exhibited chemical stability
